Assay results taken from the NIST ThermoML archive (doi:10.1021/je049633+).

Assay: xn = mol fraction of the nth substance listed
Conditions: Gas, isochoric method

[N-]=[N+]=O [nitrous oxide] + O=C=O
Conditions	molar volume [m3/mol]
303.13 K, 2781.5 kPa, x2 = 0.2607	0.00076
307.87 K, 4646.1 kPa, x2 = 0.6099	0.000401
307.97 K, 3546.3 kPa, x2 = 0.3585	0.00058
308 K, 1375.9 kPa, x2 = 0.5959	0.00171
308 K, 1790.6 kPa, x2 = 0.6953	0.00129
308 K, 4148.1 kPa, x2 = 0.6929	0.000486
308.01 K, 3399.4 kPa, x2 = 0.9071	0.000637
308.02 K, 3818.3 kPa, x2 = 0.0902	0.000513
308.03 K, 3676.1 kPa, x2 = 0.7478	0.00056
308.07 K, 2845 kPa, x2 = 0.2607	0.00076
308.09 K, 5087.6 kPa, x2 = 0.8378	0.00036
308.13 K, 3117.6 kPa, x2 = 0.4754	0.00067
312.22 K, 2766.9 kPa, x2 = 0.1499	0.000807
317.84 K, 4915.4 kPa, x2 = 0.6099	0.000401
318.01 K, 2971.6 kPa, x2 = 0.2607	0.000761
318.02 K, 5401.8 kPa, x2 = 0.8378	0.000361
318.04 K, 3722.1 kPa, x2 = 0.3585	0.000581
318.05 K, 4013.5 kPa, x2 = 0.0902	0.000513
318.11 K, 1427.6 kPa, x2 = 0.5959	0.001711
318.11 K, 3261.7 kPa, x2 = 0.4754	0.00067
318.12 K, 1861.3 kPa, x2 = 0.6953	0.00129
318.12 K, 3563 kPa, x2 = 0.9071	0.000637
318.12 K, 4371.8 kPa, x2 = 0.6929	0.000486
318.13 K, 3860.5 kPa, x2 = 0.7478	0.00056
322.91 K, 5554.6 kPa, x2 = 0.8378	0.000361
323.11 K, 2885.7 kPa, x2 = 0.1499	0.000807
323.12 K, 5055.4 kPa, x2 = 0.6099	0.000401
327.94 K, 3893.1 kPa, x2 = 0.3585	0.000581
327.98 K, 3097.5 kPa, x2 = 0.2607	0.000761
328 K, 5712 kPa, x2 = 0.8378	0.000361
328.09 K, 1478.4 kPa, x2 = 0.5959	0.001712
328.09 K, 3404 kPa, x2 = 0.4754	0.00067
328.1 K, 1930.7 kPa, x2 = 0.6953	0.001291
328.1 K, 3722.5 kPa, x2 = 0.9071	0.000637
328.1 K, 4040.6 kPa, x2 = 0.7478	0.000561
328.1 K, 4589.4 kPa, x2 = 0.6929	0.000487
328.11 K, 4212.5 kPa, x2 = 0.0902	0.000514
328.11 K, 5188.2 kPa, x2 = 0.6099	0.000402
333.09 K, 3003.3 kPa, x2 = 0.1499	0.000808
333.1 K, 5868.1 kPa, x2 = 0.8378	0.000361
338.03 K, 4402.1 kPa, x2 = 0.0902	0.000514
338.07 K, 1529 kPa, x2 = 0.5959	0.001712
338.07 K, 4218.4 kPa, x2 = 0.7478	0.000561
338.07 K, 4804.3 kPa, x2 = 0.6929	0.000487
338.08 K, 1999.6 kPa, x2 = 0.6953	0.001291
338.08 K, 3880.7 kPa, x2 = 0.9071	0.000637
338.08 K, 4065.8 kPa, x2 = 0.3585	0.000581
338.09 K, 3223.8 kPa, x2 = 0.2607	0.000761
338.09 K, 5449.4 kPa, x2 = 0.6099	0.000402
338.11 K, 3545.6 kPa, x2 = 0.4754	0.000671
343.08 K, 3119.8 kPa, x2 = 0.1499	0.000808
343.08 K, 5578.9 kPa, x2 = 0.6099	0.000402
348.02 K, 4592.8 kPa, x2 = 0.0902	0.000514
348.05 K, 3346.9 kPa, x2 = 0.2607	0.000762
348.05 K, 3684.7 kPa, x2 = 0.4754	0.000671
348.06 K, 1579.5 kPa, x2 = 0.5959	0.001713
348.06 K, 2068.1 kPa, x2 = 0.6953	0.001292
348.06 K, 4036.9 kPa, x2 = 0.9071	0.000638
348.06 K, 4394.9 kPa, x2 = 0.7478	0.000561
348.06 K, 5017.1 kPa, x2 = 0.6929	0.000487
348.07 K, 4234.7 kPa, x2 = 0.3585	0.000582
353.04 K, 3235.1 kPa, x2 = 0.1499	0.000809
357.91 K, 4567 kPa, x2 = 0.7478	0.000561
357.95 K, 2135.6 kPa, x2 = 0.6953	0.001293
357.99 K, 1629.5 kPa, x2 = 0.5959	0.001714
357.99 K, 5226.8 kPa, x2 = 0.6929	0.000487
358.02 K, 3469.7 kPa, x2 = 0.2607	0.000762
358.02 K, 3823.2 kPa, x2 = 0.4754	0.000671
358.03 K, 4191.9 kPa, x2 = 0.9071	0.000638
358.04 K, 3292.6 kPa, x2 = 0.1499	0.000809
358.04 K, 4401.6 kPa, x2 = 0.3585	0.000582
